Experimental data taken from US20090233796A1, “HERBICIDAL COMPOSITION” (SYNGENTA CROP PROTECTION, INC., priority 2004, published 2009).

Legend:
Assay type in all cases: in vivo
[1] = tested on: Corn; experiment: Compound (A) with prosulfuron, weed plots; conditions: 13 DAA, No. 3.26
Text: (§1) In these tests, […] and Compound (A) at rates equivalent to the sum of these. The compositions were formulated as an emulsifiable concentrate (EC).
(§2) The results in the tables under each application are the percentage of the plants that were killed.

[2] = tested on: Galium; experiment: Compound (A) with prosulfuron, weed plots; conditions: 13 DAA, No. 3.24
Text: as §1, §2

[3] = tested on: ABUTILON THEOPHRASTI; experiment: Compound (A) with S-metolachlor, weed plots
Text: […] The compositions were formulated as an emulsifyable concentrate (EC).
(§3) The results in the table under each application are the percentage of the plants that were killed.

[4] = tested on: IPOMOEA SP.; experiment: Compound (A) with nicosulfuron, weed plots; conditions: 5 DAA, No. 3.10
Experimental: (§4) In these tests, various weeds were treated with nicosulfuron alone at a rate equivalent to 35 g per hectare, […] and Compound (A) at rates equivalent to the sum of these. The compositions were formulated as an emulsifyable concentrate (EC).
as §3

[5] = tested on: DIGITARIA SANGUINALIS; experiment: Compound (A) with nicosulfuron, weed plots
Experimental: as §4, §3

[6] = tested on: SETARIA VIRIDIS; experiment: Compound (A) with nicosulfuron, weed plots; conditions: 4 DAA, No. 3.11
Experimental: as §4, §3

[7] = tested on: ABUTILON THEOPHRASTI; experiment: Compound (A) with nicosulfuron, weed plots; conditions: 27 DAA, No. 3.13
Experimental: as §4, §3

[8] = tested on: AMBROSIA TRIFIDA; experiment: Compound (A) with nicosulfuron, weed plots; conditions: 28 DAA, No. 3.15
Experimental: as §4, §3

[9] = tested on: SESBANIA EXALTATA; experiment: Compound (A) with nicosulfuron, weed plots
Experimental: as §4, §3

[10] = tested on: SETARIA SP.; experiment: Compound (A) with nicosulfuron, weed plots; conditions: 21 DAA, No. 3.4
Experimental: as §4, §3

[11] = tested on: […]; experiment: Compound (A) with nicosulfuron, weed plots; conditions: 58 DAA, No. 3.12
Experimental: as §4, §3

[12] = tested on: CYPERUS ESCULENTUS; experiment: Compound (A) with nicosulfuron, weed plots
Experimental: as §4, §3

[13] = tested on: C[…].; experiment: Compound (A) with nicosulfuron, weed plots; conditions: 5 DAA, No. 3.8
Experimental: as §4, §3

[14] = tested on: BRACHIARIA PLATYPHYLLA; experiment: Compound (A) with nicosulfuron, weed plots
Experimental: as §4, §3

[15] = tested on: Cyperus; experiment: Compound (A) with sulcotrione, weed plots; conditions: 14 DAA, Trial 5.1
Experimental: In these tests, various weeds were treated with sulcotrione alone at an application rate equivalent to 1420 g per hectare, […] and Compound (A) at rates equivalent to the sum of these. The compositions were formulated as an emulsifyable concentrate (EC).
as §3

[16] = tested on: Euphorbia; experiment: Compound (A) with primisulfuron, weed plots; conditions: 45 DAA, Trial 3.20
Text: as §1, §2

[17] = tested on: Wheat; experiment: Compound (A) with prosulfuron, weed plots; conditions: 13 DAA, No. 3.30
Experimental: (§5) In these tests, various weeds were treated with prosulfinuron alone at a rate equivalent to 35 g per hectare, […] and Compound (A) at rates equivalent to the sum of these. The compositions were formulated as an emulsifiable concentrate (EC).
as §2

[18] = tested on: Euphorbia; experiment: Compound (A) with prosulfuron, weed plots; conditions: 13 DAA, No. 3.28
Experimental: as §5, §2

[19] = tested on: Veronica; experiment: Compound (A) with prosulfuron, weed plots; conditions: 13 DAA, No. 3.25
Experimental: as §5, §2

[20] = tested on: Rice; experiment: Compound (A) with prosulfuron, weed plots; conditions: 13 DAA, No. 3.29
Experimental: as §5, §2

## CCOC(=O)COc1ncccc1Oc1cc(-n2c(=O)cc(C(F)(F)F)n(C)c2=O)c(F)cc1Cl [Compound (A)]
[1]; 1.25 g/ha
  percentage of the plants that were killed: 70%
[1]; 2.5 g/ha
  percentage of the plants that were killed: 90%
[1]; 5 g/ha
  percentage of the plants that were killed: 98%
[2]; 1.25 g/ha
  percentage of the plants that were killed: 50%
[2]; 2.5 g/ha
  percentage of the plants that were killed: 50%
[2]; 5 g/ha
  percentage of the plants that were killed: 100%
[3]; 20 g/ha, 15 DAA, Trial 4.12
  percentage of the plants that were killed: 25%
[3]; 20 g/ha, 23 DAA, Trial 4.3
  percentage of the plants that were killed: 43%
[3]; 20 g/ha, 38 DAA, Trial 4.4
  percentage of the plants that were killed: 35%
[3]; 20 g/ha, 56 DAA, Trial 4.13
  percentage of the plants that were killed: 0%
[3]; 40 g/ha, 15 DAA, Trial 4.12
  percentage of the plants that were killed: 88%
[3]; 40 g/ha, 23 DAA, Trial 4.3
  percentage of the plants that were killed: 78%
[3]; 40 g/ha, 38 DAA, Trial 4.4
  percentage of the plants that were killed: 70%
[3]; 40 g/ha, 56 DAA, Trial 4.13
  percentage of the plants that were killed: 13%
[4]; 5 g/ha
  percentage of the plants that were killed: 30%
[4]; 10 g/ha
  percentage of the plants that were killed: 80%
[4]; 20 g/ha
  percentage of the plants that were killed: 95%
[5]; 5 g/ha, 4 DAA, No. 3.6
  percentage of the plants that were killed: 20%
[5]; 5 g/ha, 5 DAA, No. 3.14
  percentage of the plants that were killed: 25%
[5]; 5 g/ha, 21 DAA, No. 3.5
  percentage of the plants that were killed: 50%
[5]; 10 g/ha, 4 DAA, No. 3.6
  percentage of the plants that were killed: 90%
[5]; 10 g/ha, 5 DAA, No. 3.14
  percentage of the plants that were killed: 50%
[5]; 10 g/ha, 21 DAA, No. 3.5
  percentage of the plants that were killed: 80%
[5]; 20 g/ha, 4 DAA, No. 3.6
  percentage of the plants that were killed: 98%
[5]; 20 g/ha, 5 DAA, No. 3.14
  percentage of the plants that were killed: 99%
[5]; 20 g/ha, 21 DAA, No. 3.5
  percentage of the plants that were killed: 93%
[6]; 5 g/ha
  percentage of the plants that were killed: 40%
[6]; 10 g/ha
  percentage of the plants that were killed: 70%
[6]; 20 g/ha
  percentage of the plants that were killed: 85%
[7]; 5 g/ha
  percentage of the plants that were killed: 0%
[7]; 10 g/ha
  percentage of the plants that were killed: 98%
[7]; 20 g/ha
  percentage of the plants that were killed: 99%
[8]; 5 g/ha
  percentage of the plants that were killed: 50%
[8]; 10 g/ha
  percentage of the plants that were killed: 50%
[8]; 20 g/ha
  percentage of the plants that were killed: 60%
[9]; 5 g/ha, 44 DAA, No. 3.3
  percentage of the plants that were killed: 75%
[9]; 5 g/ha, 45 DAA, No. 3.2
  percentage of the plants that were killed: 65%
[9]; 10 g/ha, 44 DAA, No. 3.3
  percentage of the plants that were killed: 85%
[9]; 10 g/ha, 45 DAA, No. 3.2
  percentage of the plants that were killed: 85%
[9]; 20 g/ha, 44 DAA, No. 3.3
  percentage of the plants that were killed: 90%
[9]; 20 g/ha, 45 DAA, No. 3.2
  percentage of the plants that were killed: 90%
[10]; 5 g/ha
  percentage of the plants that were killed: 50%
[10]; 10 g/ha
  percentage of the plants that were killed: 80%
[10]; 20 g/ha
  percentage of the plants that were killed: 93%
[11]; 5 g/ha
  percentage of the plants that were killed: 50%
[11]; 10 g/ha
  percentage of the plants that were killed: 70%
[11]; 20 g/ha
  percentage of the plants that were killed: 97%
[12]; 5 g/ha, 7 DAA, No. 3.7
  percentage of the plants that were killed: 40%
[12]; 5 g/ha, 12 DAA, No. 3.9
  percentage of the plants that were killed: 0%
[12]; 10 g/ha, 7 DAA, No. 3.7
  percentage of the plants that were killed: 60%
[12]; 10 g/ha, 12 DAA, No. 3.9
  percentage of the plants that were killed: 0%
[12]; 20 g/ha, 7 DAA, No. 3.7
  percentage of the plants that were killed: 60%
[12]; 20 g/ha, 12 DAA, No. 3.9
  percentage of the plants that were killed: 30%
[13]; 5 g/ha
  percentage of the plants that were killed: 20%
[13]; 10 g/ha
  percentage of the plants that were killed: 30%
[13]; 20 g/ha
  percentage of the plants that were killed: 95%
[14]; 5 g/ha, 24 DAA, No. 3.16
  percentage of the plants that were killed: 0%
[14]; 5 g/ha, 30 DAA, No. 3.17
  percentage of the plants that were killed: 0%
[14]; 10 g/ha, 24 DAA, No. 3.16
  percentage of the plants that were killed: 0%
[14]; 10 g/ha, 30 DAA, No. 3.17
  percentage of the plants that were killed: 0%
[14]; 20 g/ha, 24 DAA, No. 3.16
  percentage of the plants that were killed: 0%
[14]; 20 g/ha, 30 DAA, No. 3.17
  percentage of the plants that were killed: 0%
[15]; 1.25 g/ha
  percentage of the plants that were killed: 50%
[15]; 5 g/ha
  percentage of the plants that were killed: 50%
[16]; 1.25 g/ha
  percentage of the plants that were killed: 50%
[16]; 2.5 g/ha
  percentage of the plants that were killed: 70%
[16]; 5 g/ha
  percentage of the plants that were killed: 70%
[17]; 1.25 g/ha
  percentage of the plants that were killed: 80%
[17]; 2.5 g/ha
  percentage of the plants that were killed: 95%
[17]; 5 g/ha
  percentage of the plants that were killed: 100%
[18]; 1.25 g/ha
  percentage of the plants that were killed: 50%
[18]; 2.5 g/ha
  percentage of the plants that were killed: 70%
[18]; 5 g/ha
  percentage of the plants that were killed: 70%
[19]; 1.25 g/ha
  percentage of the plants that were killed: 80%
[19]; 2.5 g/ha
  percentage of the plants that were killed: 100%
[19]; 5 g/ha
  percentage of the plants that were killed: 100%
[20]; 1.25 g/ha
  percentage of the plants that were killed: 50%
[20]; 2.5 g/ha
  percentage of the plants that were killed: 70%
[20]; 5 g/ha
  percentage of the plants that were killed: 90%
